The record followed here is PubChem BioAssay (NCI).

Molecules are shown by their SMILES.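 Briefly, cells in 96-well plates were exposed to five compound concentrations for 48 h, and endpoints were estimated by linear interpolation. GI50 is the concentration that inhibits growth by half. Definition used: TGI = concentration required for complete inhibition of growth.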 Where only a bound is given, the exact number is not on record here.

Test systems include EKVX NSCLC; HS 578T breast; OVCAR-4 ovarian; SF-539 CNS; SK-MEL-5 melanoma; SR leukemia; SW-620 colon; UACC-257 melanoma.
What all share (test): growth of human tumour cells (NCI), 48 h

Regarding `NCCN1C(=O)c2ccccc2C1(O)c1ccc(Cl)cc1` (stereo not given), the TGI was 52.3 µM with EKVX NSCLC; 33.1 µM in the test with HS 578T breast; more than 100 µM in the test with OVCAR-4 ovarian; 43.2 µM in the test with SF-539 CNS; 31.3 µM in the test with SK-MEL-5 melanoma; 36.6 µM in the test with SR leukemia. In addition, the TGI is 36.6 µM in the test on SW-620 colon and 31.8 µM in the test on UACC-257 melanoma.
Turning to `COc1cc(C2C3=C(COC3=O)Nc3cc4c(cc32)OCO4)cc2c1OCO2` (stereo not given), the TGI in the test on EKVX NSCLC was more than 100 µM; in the test on HS 578T breast, more than 100 µM; in the test on OVCAR-4 ovarian it was more than 100 µM; with SF-539 CNS, more than 64.5 µM; in the test with SK-MEL-5 melanoma it was 0.374 µM; with SR leukemia it was more than 100 µM. Also, the TGI in the test on SW-620 colon and with UACC-257 melanoma was more than 100 µM each time. The GI50 was 0.0414 µM in the test with HS 578T breast; 0.0982 µM with OVCAR-4 ovarian; 0.0394 µM in the test with SF-539 CNS; 0.101 µM in the test on SK-MEL-5 melanoma; 0.0479 µM with SR leukemia; 0.0651 µM in the test on SW-620 colon.
As to `COc1ccc(C(=O)OC2C(OC3C(O)COC(O[C@H]4C[C@H]5[C@@H]6CC=C7C[C@@H](O)CC[C@]7(C)[C@H]6CC[C@]5(C)[C@H]4[C@H](C)C(=O)CCC(C)C)C3OC(C)=O)OCC(O)C2O)cc1` (stereo not given in full), the GI50 in the test on EKVX NSCLC was less than 0.003 µM; in the test on HS 578T breast it was less than 0.003 µM; in the test with OVCAR-4 ovarian, 0.00892 µM; in the test with SF-539 CNS, less than 0.003 µM; in the test on SK-MEL-5 melanoma, less than 0.003 µM; in the test on SR leukemia, less than 0.003 µM. Further, the GI50 with SW-620 colon and in the test with UACC-257 melanoma was less than 0.003 µM in each case. In addition, the TGI in the test on EKVX NSCLC is 2.4 µM; with HS 578T breast it was 0.0215 µM; in the test on OVCAR-4 ovarian, 19.6 µM; in the test on SF-539 CNS it was less than 0.003 µM; in the test with SK-MEL-5 melanoma, 0.0204 µM; in the test with SR leukemia, 0.682 µM. The TGI worked out at 0.304 µM in the test on SW-620 colon and 0.0072 µM in the test on UACC-257 melanoma.
Regarding `COc1cc2c(cc1O)C(c1cc(O)c(O)c(OC)c1)C(O)(C(=O)O)C(CO)C2O` (stereo not given), the TGI was 36.9 µM with EKVX NSCLC; more than 100 µM in the test on HS 578T breast; more than 100 µM with OVCAR-4 ovarian; more than 100 µM in the test on SF-539 CNS; more than 100 µM with SK-MEL-5 melanoma; more than 100 µM in the test with SR leukemia. Also, the TGI is 76.5 µM in the test on SW-620 colon and more than 100 µM in the test on UACC-257 melanoma.
As to `Oc1ccccc1C=Nc1ccccc1N=Cc1ccccc1O.[Cu+2]`, the GI50 in the test on EKVX NSCLC is 8.62 µM; in the test with HS 578T breast, 15.4 µM; in the test on OVCAR-4 ovarian it was 5.79 µM; in the test with SF-539 CNS, 11.8 µM; in the test with SK-MEL-5 melanoma, 1.66 µM; in the test on SR leukemia it was 13.2 µM. Further, the GI50 is 10.6 µM with SW-620 colon and 4.08 µM with UACC-257 melanoma. In addition, the TGI with EKVX NSCLC is 23.6 µM; with HS 578T breast it was 92 µM; in the test with OVCAR-4 ovarian, 19 µM; with SF-539 CNS, 27.7 µM; in the test on SK-MEL-5 melanoma, 3.46 µM; in the test with SR leukemia, more than 100 µM. Further, the TGI was 24.4 µM in the test on SW-620 colon and 15.6 µM in the test with UACC-257 melanoma.
Consider `NC(CO)C(=O)NCC(=O)O` (stereo not given), for which the TGI in the test on EKVX NSCLC, with HS 578T breast, with OVCAR-4 ovarian, in the test on SF-539 CNS, in the test with SK-MEL-5 melanoma and with SR leukemia was more than 100 µM throughout. Also, the TGI in the test on SW-620 colon and with UACC-257 melanoma was more than 100 µM in each case.
As to `Cn1c2ccccc2c2nnc(NNCc3ccccn3)nc21`, the GI50 is 0.406 µM in the test on EKVX NSCLC; 1.44 µM in the test on HS 578T breast; 0.451 µM in the test with OVCAR-4 ovarian; 0.393 µM with SF-539 CNS; 0.271 µM in the test on SK-MEL-5 melanoma; 0.311 µM with SR leukemia. Further, the GI50 in the test on SW-620 colon is 0.613 µM; with UACC-257 melanoma, 0.641 µM. Also, the TGI in the test with EKVX NSCLC came to 15.2 µM; in the test with HS 578T breast it was 16.7 µM; in the test with OVCAR-4 ovarian, 13.9 µM; in the test with SF-539 CNS, 3.38 µM; in the test with SK-MEL-5 melanoma it was 1.65 µM; in the test with SR leukemia, 18.7 µM. The TGI is 16.5 µM in the test with SW-620 colon and 11.1 µM with UACC-257 melanoma.
Turning to `Nc1nc(-c2cc(-c3cccc4ccccc34)nc(N)n2)cc(-c2cccc3ccccc23)n1`, the TGI in the test on EKVX NSCLC, in the test with HS 578T breast, in the test on OVCAR-4 ovarian, in the test with SF-539 CNS, with SK-MEL-5 melanoma and with SR leukemia was more than 100 µM in each case. Besides, the TGI with SW-620 colon and in the test with UACC-257 melanoma was more than 100 µM in each case.
For the compound `Clc1ccc(N2CCC(N3CCCC3)CC2)cc1-c1nc2ccccc2[nH]1`, the GI50 in the test with EKVX NSCLC was 37.9 µM; in the test with HS 578T breast it was 16.8 µM; in the test on OVCAR-4 ovarian it was 27.1 µM; with SF-539 CNS it was 17 µM; with SK-MEL-5 melanoma it was 6.59 µM; in the test with SR leukemia it was 20.1 µM. The GI50 was 16.8 µM with SW-620 colon and 17 µM in the test on UACC-257 melanoma. Besides, the TGI is more than 100 µM in the test with EKVX NSCLC; 51.7 µM with HS 578T breast; more than 91.4 µM in the test with OVCAR-4 ovarian; 32.1 µM in the test with SF-539 CNS; 17.1 µM with SK-MEL-5 melanoma; 58.7 µM in the test on SR leukemia. Also, the TGI in the test on SW-620 colon came out at 36 µM; in the test on UACC-257 melanoma, 32.9 µM.
